According to paper PMC3085635 (Bioorganic & medicinal chemistry letters, 2011):
Where “and” joins values, the source holds several entries; their conditions need not be identical. Equal values may be shown once.

Tests used:
[1] = molecular target: HIV-1 integrase (IN), 3′-processing (Human immunodeficiency virus type 1 group M subtype B, UniProt P12497); assay: biochemical
[2] = tested on: HIV-1 integrase Y143R mutant; type: biochemical
[3] = tested on: HIV-1 integrase N155H mutant; type: biochemical
[4] = tested on: HIV-1 vector with G140S/Q148H integrase; type: cell-based; details: antiviral, mutant vector in cultured cells
[5] = tested on: HIV-1 vector with N155H integrase; type: cell-based; details: antiviral, cultured cells
[6] = tested on: HIV-1 vector with Y143R integrase; type: cell-based; details: antiviral, cultured cells
[7] = molecular target: HIV-1 integrase (IN), strand transfer, wild-type (Human immunodeficiency virus type 1 group M subtype B, UniProt P12497); assay: biochemical; details: Strand transfer IC50, in vitro IN assays as described in reference [4]
[8] = 3′-Processing IC50, in vitro IN assays as described in reference [4]

O=C1c2ccc(O)c(O)c2C(=O)N1Cc1ccc(F)c(F)c1 [3-3, reference compound]
IC50 [1, 8]: 27 ± 1 µM

O=C1c2c(c3n(c(=O)c2O)CCCC3)C(=O)N1Cc1ccc(F)c(Cl)c1 [4b-1]
IC50 ([1]; 3′-P IC50, metal cofactor Mg2+): > 111 µM
IC50 [1, 8]: > 111 µM
fold less sensitive than Raltegravir to the Y143R mutation [2]: more than 10 fold
cytotoxicity fold lower than 3-1 (cultured cells): 30 fold
fold less sensitive than Raltegravir to the N155H mutation [3]: more than 2 fold
times less sensitive than Raltegravir to the G140S/Q148H mutation [4]: 200 times
fold lower loss of potency compared to Raltegravir, N155H vector [5]: 10 fold
fold lower loss of potency compared to Raltegravir, Y143R vector [6]: 10 fold

O=C1c2c(c3n(c(=O)c2O)CCCCCC3)C(=O)N1Cc1ccc(F)c(Cl)c1 [4d-1]
IC50 [1, 8]: > 111 µM

O=C1c2c(c3n(c(=O)c2O)CCCCC3)C(=O)N1Cc1ccc(F)c(Cl)c1 [4c-1]
IC50 [1, 8]: > 111 µM

O=C1c2ccc(O)c(O)c2C(=O)N1Cc1ccccc1 [3-5]
IC50 [1, 8]: 72 ± 23 µM
IC50 [7]: 0.4 µM and 0.39 µM

O=C1c2ccc(O)c(O)c2C(=O)N1Cc1cccc2ccccc12 [3-6]
IC50 [1, 8]: 150 ± 36 µM
IC50 [7]: 0.7 µM and 0.72 µM

O=C1c2c(c3n(c(=O)c2O)CCCCC3)C(=O)N1Cc1cccc2ccccc12 [4c-6]
IC50 [1, 8]: > 111 µM

O=C1c2ccc(O)c(O)c2C(=O)N1Cc1ccc(F)cc1 [3-2, reference compound]
IC50 [1, 8]: 8 ± 3 µM

O=C1c2ccc(O)c(O)c2C(=O)N1Cc1cccc(Cl)c1F [3-4, reference compound]
IC50 [1, 8]: 25 ± 16 µM

O=C1c2c(c3n(c(=O)c2O)CCC3)C(=O)N1Cc1ccc(F)c(Cl)c1 [4a-1]
IC50 [1, 8]: > 111 µM

O=C1c2c(c3n(c(=O)c2O)CCCCC3)C(=O)N1Cc1ccc(F)cc1 [4c-2]
IC50 [1, 8]: > 111 µM

O=C1c2ccc(O)c(O)c2C(=O)N1Cc1ccc(F)c(Cl)c1 [3-1, reference compound]
IC50 [1, 8]: 14 ± 3 µM
IC50 [7]: 0.17 ± 0.06 µM

O=C1c2c(c3n(c(=O)c2O)CCCCC3)C(=O)N1Cc1ccc(F)c(F)c1 [4c-3]
IC50 [1, 8]: > 111 µM

O=C1c2c(c3n(c(=O)c2O)CCCCC3)C(=O)N1Cc1cccc(Cl)c1F [4c-4]
IC50 [1, 8]: > 111 µM

O=C1c2c(c3n(c(=O)c2O)CCCCC3)C(=O)N1Cc1ccccc1 [4c-5]
IC50 [1, 8]: > 111 µM
IC50 [7]: > 111 µM
